Experimental data taken from US20200392107A1, “CYCLIC AMINE DERIVATIVE AND MEDICAL USE THEREOF” (Toray Industries, Inc., priority 2018, published 2020).

Legend:
[1] = tested on: DNFB-induced mouse allergic dermatitis model; experiment: DNFB-induced mouse allergic dermatitis model; type: in vivo; details: 10 mg/kg orally one hour before induction; BALB/c mice; vs vehicle, P<0.05
Experimental: Using increase in the ear swelling rate as an index of exacerbation of symptoms, the effect of the cyclic amine derivative (I) or a pharmacologically acceptable salt thereof in a DNFB-induced mouse allergic dermatitis model was evaluated. The DNFB-induced mouse allergic dermatitis model was prepared by a partially modified method by Curzytek et al. (Pharmacological Reports, 2013, Vol. 65, p. 1237-1246).
BALB/c mice (female, 6 weeks old) (Charles River Laboratories Japan, Inc.) were used at 8 weeks old after preliminary breeding. To the back of the mice, 25 μL of a 0.5 v/v % DNFB solution dissolved in acetone:olive oil (4:1) was applied. The next day, the same operation was repeated to sensitize the mice. Four days after the sensitization, 10 μL each of a 0.2 v/v % DNFB solution dissolved in acetone:olive oil (4:1) was applied to both sides of the right auricle of the sensitized mice to induce inflammation.
One hour before induction, a test compound at a dose of 10 mg/kg was administered to the mice. As the test compound, the compound of Example 1, the compound of Example 4, and the compound of Example 9 were used. The compound of Example 1, the compound of Example 4, and the compound of Example 9 were respectively suspended in a 0.5 w/v % methylcellulose solution and orally administered. The group in which the compound of Example 1 was administered to mice was defined as the Example-1 compound administration group, the group in which the compound of Example 4 was administered was defined as the Example-4 compound administration group, and the group in which the compound of Example 9 was administered was defined as the Example-9 compound administration group. […]
The right ear thickness before application of the DNFB solution (before induction) on the induction day and the right ear thickness at the 24th hour after induction were measured with a digital micrometer (Mitutoyo Corporation). The swelling rate of the auricle was calculated by Formula (3) and used as an index of the drug efficacy evaluation: […]

[2] = tested on: oxazolone-induced mouse atopic dermatitis model; experiment: Oxazolone-induced mouse atopic dermatitis model; type: in vivo; details: 10 mg/kg orally once daily for 15 days from sensitization day; BALB/c mice; vs vehicle, P<0.05
Experimental: Using increase in the ear thickness as an index of exacerbation of symptoms, the effect of the cyclic amine derivative (I) or a pharmacologically acceptable salt thereof in an oxazolone-induced mouse atopic dermatitis model was evaluated. The oxazolone-induced mouse atopic dermatitis model was prepared by a partially modified method by Nakajima et al. (Journal of Investigative Dermatology, 2014, Vol. 134, p. 2122-2130).
BALB/c mice (female, 7 weeks old) (Charles River Laboratories Japan, Inc.) were used at 8 weeks old after preliminary breeding. To the back of the mice, 25 μL of a 3 w/v % oxazolone solution dissolved in ethanol was applied to sensitize the mice. Every other day from 5 days to 13 days after the sensitization, 10 μL each of a 0.6 w/v % oxazolone solution dissolved in ethanol was applied to both sides of the right auricle of the sensitized mice to induce inflammation.
A test compound at a dose of 10 mg/kg was administered to the mice once daily for 15 days from the sensitization day to 14 days after sensitization. As the test compound, the compound of Example 1, the compound of Example 4, and the compound of Example 9 were used. The compound of Example 1, the compound of Example 4, and the compound of Example 9 were suspended in a 0.5 w/v % methylcellulose solution and orally administered. The group in which the compound of Example 1 was administered to mice was defined as the Example-1 compound administration group, the group in which the compound of Example 4 was administered was defined as the Example-4 compound administration group, and the group in which the compound of Example 9 was administered was defined as the Example-9 compound administration group. In the vehicle administration group, a vehicle of each test compound (0.5 w/v % methylcellulose solution) was similarly administered.
The right ear thickness before application of the oxazolone solution (before sensitization) on the sensitization day and the right ear thickness on the next day of final induction were measured with a digital micrometer (Mitutoyo Corporation). […]

SMILES	increase in the ear swelling rate (24th hour after induction) [1]	increase in the ear thickness (change in the ear thickness, next day of final induction) [2]
CC(=O)N1CCCC[C@@H]1C(=O)Nc1cc(Cl)c2c(c1)CCCN2Cc1ccc(C(F)(F)F)cc1 [Example 1, (R)-1-acetyl-N-(8-chloro-1-(4-(trifluoromethyl)benzyl)-1,2,3,4-tetrahydroquinolin-6-yl)piperidine-2-carboxamide]	statistically significantly suppressed	statistically significantly suppressed
CC(=O)N1CCCC[C@@H]1C(=O)Nc1cc(Cl)c2c(c1)CCN2Cc1ccc(C(F)(F)F)cc1 [Example 4, (R)-1-acetyl-N-(7-chloro-1-(4-(trifluoromethyl)benzyl)indolin-5-yl)piperidine-2-carboxamide]	statistically significantly suppressed	statistically significantly suppressed
CC(=O)N1CCCC[C@@H]1C(=O)Nc1cc(Cl)c2c(c1)CCN2C[C@H]1CC[C@H](C(F)(F)F)CC1 [Example 9, (R)-1-acetyl-N-(7-chloro-1-((trans-4-(trifluoromethyl)cyclo-hexyl)methyl)indolin-5-yl)piperidine-2-carboxamide]	statistically significantly suppressed	statistically significantly suppressed
